Laboratory results from patent US20020054880A1, “Anti-inflammatory, tolerogenic and immunoinhibiting properties of carbohydrate binding-peptides” (priority 1992, published 2002).
“Also recorded” adds a separate entry of the source.

Experiments:
[1] = biological target: T1, PT-biotin binding to fetuin (Bos taurus, UniProt P12763); experiment: PT-biotin binding to fetuin, binding inhibition assay; parameters: species or system Bordetella pertussis; conditions: for Percent Changes in Binding Activity PT/fetuin: peptide mg/mL: S2PL 1.2, ACS2P1 1.0, S2(14-2.3) 1.0, S2P2 1.1, S2P3 0.51, S2P4 0.98, S2P6 0.85, S3P1 3.2, S3P2 3.1, S3P3 4.5, S3P4 3.3, S3P5 0.48, S3P9a 1.7, SPYGRC 4.4, S2(WGA) 1.0, WGA (62-73) 1.0, + enhancement, − inhibition
T1 construct: purchased Sigma Chemical Company (fetuin); Connaught Center for Biotechnology Research (PT)
T1 sequence (P12763 19-359): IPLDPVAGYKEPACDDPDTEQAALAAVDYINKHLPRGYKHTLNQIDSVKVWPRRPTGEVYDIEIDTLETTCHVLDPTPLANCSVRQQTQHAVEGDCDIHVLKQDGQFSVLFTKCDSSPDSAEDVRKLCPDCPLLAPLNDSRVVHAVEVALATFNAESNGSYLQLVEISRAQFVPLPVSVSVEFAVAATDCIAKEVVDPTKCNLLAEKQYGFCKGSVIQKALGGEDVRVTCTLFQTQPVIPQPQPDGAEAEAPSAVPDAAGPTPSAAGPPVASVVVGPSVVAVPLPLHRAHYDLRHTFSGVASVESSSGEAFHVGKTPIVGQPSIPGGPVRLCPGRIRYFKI
Protocol: (§1) Peptides ranging in concentration from 0.5 to 4.5 mg/ml in PBS (40 μl) were added to each well and PT-biotin (10 μl containing 10 ng in PBS) was then added to the microtiter wells. […] Horseradish peroxidase-conjugated avidin (100 μl, 1/3000 dilution in PBST to a concentration of 0.3 μg/ml) was then added to the wells, and the plates were incubated at ambient temperature for 1 hour. […] Color development was recorded at 405 nm using a Titertek Multiskan MC plate reader. […] Binding assays for each peptide were done in duplicate. Binding inhibition experiments utilizing SNA-, WGA-, and MAL-biotin were performed as described above using 10 ng of each biotinylated lectin in PBS.
(§2) Binding assays for each inhibitor concentration were done at least in duplicate, and the average value varied less than 15%.

[2] = biological target: T2, MAL-biotin binding to fetuin (Bos taurus, UniProt P12763); experiment: MAL-biotin binding to fetuin, binding inhibition assay; parameters: species or system Maackia amurensis; conditions: for Percent Changes in Binding Activity MAL/fetuin: peptide mg/mL: S2PL 1.2, ACS2P1 1.0, S2(14-2.3) 1.0, S2P2 1.1, S2P3 0.51, S2P4 0.98, S2P6 0.85, S3P1 3.2, S3P2 3.1, S3P3 4.5, S3P4 3.3, S3P5 0.48, S3P9a 1.7, SPYGRC 4.4, S2(WGA) 1.0, WGA (62-73) 1.0, + enhancement, − inhibition
T2 construct: purchased Sigma Chemical Company (fetuin); Boehringer Mannheim (MAL-biotin)
T2 sequence (P12763 19-359): T1 sequence (P12763 19-359)
Protocol: as §1, §2

[3] = biological target: T3, SNA-biotin binding to fetuin (Bos taurus, UniProt P12763); experiment: biochemical; conditions: peptide mg/mL: S2PL 1.2, ACS2P1 1.0, S2(14-2.3) 1.0, S2P2 1.1, S2P3 0.51, S2P4 0.98, S2P6 0.85, S3P1 3.2, S3P2 3.1, S3P3 4.5, S3P4 3.3, S3P5 0.48, S3P9a 1.7, SPYGRC 4.4, S2(WGA) 1.0, WGA (62-73) 1.0; + enhancement, − inhibition
T3 sequence (P12763 19-359): T1 sequence (P12763 19-359)
Protocol: (§3) The solution was removed by aspiration and replaced with 100 μl of 1% BSA in PBS containing 0.05% Tween 20 (PBST). After incubation for 2-4 hours at room temperature, the microtiter wells were washed four times with 300 μl of PBST. Peptides ranging in concentration from 0.5 to 4.5 mg/ml in PBS (40 μl) were added to each well and PT-biotin (10 μl containing 10 ng in PBS) was then added to the microtiter wells. After incubating for 1 hour, the binding reaction was stopped by aspirating the solutions and the plate was washed with PBST (300 μl). Horseradish peroxidase-conjugated avidin (100 μl, 1/3000 dilution in PBST to a concentration of 0.3 μg/ml) was then added to the wells, and the plates were incubated at ambient temperature for 1 hour. After washing the wells as described above, the substrate solution [1 mM ABTS in 5 mM citrate buffer, pH 4.2, containing 0.1% hydrogen peroxide, v/v) was added and the plates were incubated for 30 minutes. Color development was recorded at 405 nm using a Titertek Multiskan MC plate reader. Maximum binding was determined in the absence of peptide, and background binding was measured in wells coated with BSA only. Binding assays for each peptide were done in duplicate. Binding inhibition experiments utilizing SNA-, WGA-, and MAL-biotin were performed as described above using 10 ng of each biotinylated lectin in PBS.

[4] = biological target: T4, WGA-biotin binding to fetuin (Bos taurus, UniProt P12763); experiment: biochemical; conditions: for Percent Changes in Binding Activity WGA/fetuin: peptide mg/mL: S2PL 1.2, ACS2P1 1.0, S2(14-2.3) 1.0, S2P2 1.1, S2P3 0.51, S2P4 0.98, S2P6 0.85, S3P1 3.2, S3P2 3.1, S3P3 4.5, S3P4 3.3, S3P5 0.48, SPYGRC 4.4, S2(WGA) 1.0, WGA (62-73) 1.0, + enhancement, − inhibition
T4 sequence (P12763 19-359): T1 sequence (P12763 19-359)
Protocol: as §3

[5] = biological target: T5, PT-biotin binding to asialofetuin (Bos taurus, UniProt P12763); experiment: PT-biotin binding to asialofetuin, binding inhibition assay; parameters: species or system Bordetella pertussis; conditions: for Percent Changes in Binding Activity PT/asialo-fetuin: peptide mg/mL: S2PL 1.2, ACS2P1 1.0, S2P2 1.1, S2P3 0.51, S2P4 0.98, S2P6 0.85, S3P1 3.2, S3P2 3.1, S3P3 4.5, S3P4 3.3, S3P5 0.48, SPYGRC 4.4, + enhancement, − inhibition; for IC50 PT-b (asialofetuin): wells coated with 3 μg/ml asialofetuin, 2-fold dilutions of peptide in PBS
T5 construct: made in house
T5 sequence (P12763 19-359): T1 sequence (P12763 19-359)
Protocol: as §1, §2

[6] = biological target: T6, ACS2P1-biotin binding to fetuin (Bos taurus, UniProt P12763); experiment: biochemical; conditions: peptide μM: ACS2P1 4.1, S2P2 42.5, SPYGRC 5520, S2P3 22.4, S2P4 6.0, S2P6 319, S3P1 1142, S3P2 934, S3P3 16.1, S3P4 6.4, S3P5 22.5; ACS2P1-biotin 0.1 μg; − inhibition, + enhancement
T6 construct: purchased Sigma Chemical Company
T6 sequence (P12763 19-359): T1 sequence (P12763 19-359)

[7] = biological target: T7, ACS2P1-biotin binding to asialofetuin (Bos taurus, UniProt P12763); experiment: Screening of S2 and S3 peptides for inhibition of ACS2P1-biotin binding to asialofetuin; conditions: peptide μM: ACS2P1 4.1, S2P2 42.5, SPYGRC 5520, S2P3 22.4, S2P4 6.0, S2P6 319, S3P1 1142, S3P2 934, S3P3 16.1, S3P4 6.4, S3P5 22.5; ACS2P1-biotin 0.1 μg; − inhibition, + enhancement
T7 construct: made in house
T7 sequence (P12763 19-359): T1 sequence (P12763 19-359)

Row | Compound | IC50 [1] [µM] | effect on PT-biotin binding to fetuin, in words [1] | Percent Changes in Binding Activity PT/fetuin [1] | IC50 [2] [µM] | effect on MAL-biotin binding to fetuin, in words [2] | Percent Changes in Binding Activity MAL/fetuin [2] | Percent Changes in Binding Activity SNA/fetuin [3] | IC50 [4] [µM] | Percent Changes in Binding Activity WGA/fetuin [4] | Percent Changes in Binding Activity PT/asialo-fetuin [5] | Percent Change in Binding Activity Fetuin [6] | Percent Change in Binding Activity Asialofetuin [7] | effect on PT-biotin binding to asialofetuin, in words [5] | IC50 PT-b (asialofetuin) [5] | enhancement of PT-biotin binding to fetuin relative to control experiments in the absence of peptide ([1]; initial peptide screening) [fold]
1 | CC[C@H](C)[C@H](NC(=O)[C@H](CS)NC(=O)[C@H](Cc1ccccc1)NC(=O)[C@@H](NC(=O)[C@@H](NC(=O)[C@H](CCCCN)NC(=O)[C@H](CC(C)C)NC(=O)[C@H](CC(=O)O)NC(=O)[C@H](Cc1ccccc1)NC(=O)[C@H](C)NC(=O)CN)[C@@H](C)O)[C@@H](C)O)C(=O)N[C@@H](CCSC)C(=O)N[C@H](C(=O)N[C@H](C(=O)N[C@@H](CCCNC(=N)N)C(=O)N[C@@H](CC(N)=O)C(=O)N[C@H](C(=O)NCC(=O)N[C@@H](CCC(N)=O)C(=O)N1CCC[C@H]1C(=O)N[C@@H](C)C(=O)O)[C@@H](C)O)[C@@H](C)O)[C@@H](C)O [Peptide S2P3] | 190 ± 90 | inhibit binding to fetuin of all the biotinylated lectins | −21 ± 0% | 860 ± 20 | inhibit binding to fetuin of all the biotinylated lectins; also recorded: very active at inhibiting | −18 ± 2% | −15 ± 4% | 140 ± 30 | −56 ± 8% | −15(1) Percent | +70 ± 11% | +15 ± 11% | – | – | –
2 | CC[C@H](C)[C@H](NC(=O)[C@@H](NC(=O)[C@@H]1CCCN1C(=O)[C@H](CCC(N)=O)NC(=O)CNC(=O)[C@H](CO)NC(=O)[C@H](CCCNC(=N)N)NC(=O)[C@@H](NC(=O)[C@@H](N)Cc1ccccc1)C(C)C)C(C)C)C(=O)NCC(=O)N[C@@H](C)C(=O)N[C@@H](CS)C(=O)N[C@H](C(=O)N[C@@H](CO)C(=O)N1CCC[C@H]1C(=O)N[C@@H](Cc1ccc(O)cc1)C(=O)N[C@@H](CC(=O)O)C(=O)NCC(=O)N[C@@H](CCCCN)C(=O)N[C@@H](Cc1ccc(O)cc1)C(=O)N[C@@H](Cc1c[nH]c2ccccc12)C(=O)N[C@@H](CO)C(=O)N[C@@H](CCSC)C(=O)N[C@@H](Cc1ccc(O)cc1)C(=O)N[C@@H](CO)C(=O)N[C@@H](CCCNC(=N)N)C(=O)N[C@@H](CC(C)C)C(=O)N[C@@H](CCCNC(=N)N)C(=O)N[C@@H](CCCCN)C(=O)N[C@@H](CCSC)C(=O)N[C@@H](CC(C)C)C(=O)N[C@@H](Cc1ccc(O)cc1)C(=O)O)[C@@H](C)O [Peptide S2P6] | 220 ± 60 | – | −28 ± 6% | – | – | +18 ± 16% | +2 ± 2% | – | +57 ± 0% | −18(1) Percent | +49 ± 5% | +18 ± 16% | – | – | –
3 | AGFIYRETFCITTIYKTGQPAADHYYSKVTA [Peptide S3P4] | – | – | +12 ± 2% | – | – | +7 ± 1% | +1(1) Percent | – | +13 ± 1% | +75 ± 50% | +55 ± 26% | +26 ± 2% | – | – | –
4 | Ac-PQEQITQHGSPYGRC-NH2 [ACS2P1] | – | – | +89 ± 3% | – | – | +16 ± 9% | – | – | – | +190 ± 23% | – | +101 ± 2% | – | – | –
5 | CASPYEGRYRDMYDALRRLLY [Peptide S3P5] | – | – | +14 ± 6% | – | – | +3 ± 6% | 0(1) Percent | – | +35 ± 8% | −26 ± 10% | −19 ± 4% | −17 ± 8% | reduce binding of PT to asialofetuin only; also recorded: inhibit PT-biotin's interaction with asialofetuin in a concentration-dependent manner | above the solubility limits of the peptide in PBS | –
6 | CITTIYKTGQPAADHYYSKVTA [Peptide S3P3] | – | – | +19 ± 67% | – | – | +13 ± 15% | +3 ± 0% | – | +6 ± 3% | −28 ± 7% | −13 ± 16% | −10 ± 11% | reduce binding of PT to asialofetuin only; also recorded: inhibit PT-biotin's interaction with asialofetuin in a concentration-dependent manner | above the solubility limits of the peptide in PBS | –
7 | H-SQYGYCGFGAEY-OH [WGA (62-73)] | 1500 | – | −32 ± 5% | – | – | −1 ± 4% | −3 ± 2% | 3400 | −9 ± 1% | – | – | – | – | – | –
8 | PQEQITQHGSPYGRC [Peptide S2P1] | – | enhancement of binding of PT to fetuin | +85 ± 4% | – | – | +8 ± 4% | −5 ± 1% | – | −18 ± 2% | +113(1) Percent | – | – | – | – | ~2
9 | PQEQITQHGSQYGYC [S2 (WGA)] | – | – | +79 ± 15% | – | – | +22 ± 3% | 0 ± 1% | – | −4 ± 3% | – | – | – | – | – | –
10 | TQHGSPYGRC [S2 (14-23)] | – | – | +68 ± 9% | – | – | +32 ± 1% | +1 ± 2% | – | +7 ± 1% | – | – | – | – | – | –
11 | YDGKYWSMYSRLRKMLY [Peptide S2P4] | – | – | +14 ± 22% | – | – | +2(1) Percent | +3(1) Percent | – | +15 ± 1% | −3(1) Percent | −8 ± 16% | +2 ± 4% | – | – | –
